In patent US9211310B2, “Use of a Chinese medicine composition in preparing medicaments for treating secondary prevention of myocardial infarction” (TASLY PHARMACEUTICAL GROUP CO., LTD, priority 2010, dated 2015):

Test system: patients after acute myocardial infarction
Assay: Life quality, Seattle Angina Questionnaire (SAQ), same clinical trial
Assay type: in vivo, human
Conditions: FAS
From the text: 3508 patients who were in accordance with the diagnostic standards of AMI for 28 days to 2 years and differentiated as Qi deficiency and blood stagnation syndrome by TCM were studied. 0.5 g Chinese medicine composition prepared by the method of EXAMPLE 1 (Coded as QSYQ) was administrated half an hour after meal, 3 times per day.
There were 19 questions in the Seattle angina questionnaire (SAQ), including 5 parts: physical limitation (PL), anginal stability (AS), anginal frequency (AF), treatment satisfaction (TS) and disease perception (DP). After being given necessary explanation by doctors, the questions were answered independently by patients.
They included the overall survival time, angina pectoris score, TCM symptom score and life quality score, where angina pectoris score, TCM symptom score and life quality score were evaluated at randomization, in 1st, 3rd, 6th, 9th, 12th month after treatment and 18th month after follow-up.
All evaluation results of SAQ were described during the period of observation, and Wilcoxon rank sum test was used for inter-group comparison.
The evaluation results in the SAQ were depicted in different observations, and inter-group comparison was tested by Wilcoxon Rank-sum test.

In the case of `CC(=O)Oc1ccccc1C(=O)O` [Control group, aspirine], the “SAQ Question 1-8: Mildly limited, patients (%)” value (6 months after treatment) is reported as “(25.30%)”, the “SAQ Question 1-8: Moderately limited, patients (%)” value (6 months after treatment) is reported as “(16.42%)” and the “SAQ Question 1-8: Not limited, patients (%)” value (6 months after treatment) is reported as “(10.62%)”. For the same compound, the “SAQ Question 1-8: Other reasons, patients (%)” value (6 months after treatment) was “(3.77%)”, the “SAQ Question 1-8: Severely limited, patients (%)” value (6 months after treatment) was “(19.38%)” and the “SAQ Question 1-8: Slightly limited, patients (%)” value (6 months after treatment) was “(24.49%)”. For the same compound, the “8th question: Mostly satisfied, patients (%)” value (6 months after treatment, second line of the scale) was “(2.24%)”, the “8th question: Dissatisfied, patients (%)” value (9 months after treatment) was “(0.34%)” and the “8th question: Highly satisfied, patients (%)” value (9 months after treatment) was “(22.36%)”. For the same compound, the “8th question: Mostly dissatisfied, patients (%)” value (9 months after treatment) was “(1.89%)”, the “8th question: Mostly satisfied, patients (%)” value (9 months after treatment) was “(58.31%)” and the “8th question: Partly satisfied, patients (%)” value (9 months after treatment) was “(17.09%)”. The “9th question: Few, patients (%)” value (9 months after treatment) was “(37.79%)”, the “9th question: Mild, patients (%)” value (9 months after treatment) was “(33.08%)” and the “9th question: Moderate, patients (%)” value (9 months after treatment) was “(8.77%)”. For the same compound, the “9th question: Severe, patients (%)” value (9 months after treatment) was “(0.97%)”, the “9th question: Uneffective, patients (%)” value (9 months after treatment) was “(19.38%)” and the “10th question: Dissatisfied, patients (%)” value (9 months after treatment) was “(19.55%)”. For the same compound, the “10th question: Highly satisfied, patients (%)” value (9 months after treatment) was “(5.73%)”, the “10th question: Mostly dissatisfied, patients (%)” value (9 months after treatment) was “(20.47%)” and the “10th question: Mostly satisfied, patients (%)” value (9 months after treatment) was “(28.84%)”. The “10th question: Partly satisfied, patients (%)” value (9 months after treatment) was “(25.40%)”, the “11th question: Continuously worried, patients (%)” value (9 months after treatment) was “(3.44%)” and the “11th question: No worried, patients (%)” value (9 months after treatment) was “(6.02%)”. The “11th question: Occasionally worried, patients (%)” value (9 months after treatment) was “(41.80%)”, the “11th question: Often worried, patients (%)” value (9 months after treatment) was “(12.33%)” and the “11th question: Seldom worried, patients (%)” value (9 months after treatment) was “(36.41%)”. The “SAQ 4th question, 1-2 times per week: % of patients” value (9 months after treatment) was “(15.60%)”, the “SAQ 4th question, 1-2 times per week: number of patients” value (9 months after treatment) was 272 and the “SAQ 4th question, 1-3 times per week: % of patients” value (9 months after treatment) was “(4.30%)”. For the same compound, the “SAQ 4th question, 1-3 times per week: number of patients” value (9 months after treatment) was 75, the “SAQ 4th question, <1 time per week: % of patients” value (9 months after treatment) was “(15.14%)” and the “SAQ 4th question, <1 time per week: number of patients” value (9 months after treatment) was 264. The “SAQ 4th question, Not used: % of patients” value (9 months after treatment) was “(59.69%)”, the “SAQ 4th question, Not used: number of patients” value (9 months after treatment) was 1041 and the “SAQ 4th question, ≧3 times per week: % of patients” value (9 months after treatment) was “(5.16%)”. The “SAQ 4th question, ≧3 times per week: number of patients” value (9 months after treatment) was 90, the “SAQ 4th question, ≧4 times per day: % of patients” value (9 months after treatment) was “(0.11%)” and the “SAQ 4th question, ≧4 times per day: number of patients” value (9 months after treatment) was 2. For the same compound, the “SAQ 5th question, 1-2 times per week: % of patients” value (9 months after treatment) was “(28.67%)”, the “SAQ 5th question, 1-2 times per week: number of patients” value (9 months after treatment) was 500 and the “SAQ 5th question, 1-3 times per day: % of patients” value (9 months after treatment) was “(7.97%)”. For the same compound, the “SAQ 5th question, 1-3 times per day: number of patients” value (9 months after treatment) was 139, the “SAQ 5th question, <1 time per week: % of patients” value (9 months after treatment) was “(28.56%)” and the “SAQ 5th question, <1 time per week: number of patients” value (9 months after treatment) was 498. For the same compound, the “SAQ 5th question, No onset: % of patients” value (9 months after treatment) was “(4.47%)”, the “SAQ 5th question, No onset: number of patients” value (9 months after treatment) was 78 and the “SAQ 5th question, ≧3 times per week: % of patients” value (9 months after treatment) was “(29.42%)”. For the same compound, the “SAQ 5th question, ≧3 times per week: number of patients” value (9 months after treatment) was 513, the “SAQ 5th question, ≧4 times per day: % of patients” value (9 months after treatment) was “(0.92%)” and the “SAQ 5th question, ≧4 times per day: number of patients” value (9 months after treatment) was 16. The “SAQ 6th question, Dissatisfied: % of patients” value (9 months after treatment) was “(0.23%)”, the “SAQ 6th question, Dissatisfied: number of patients” value (9 months after treatment) was 4 and the “SAQ 6th question, Highly satisfied: % of patients” value (9 months after treatment) was “(23.62%)”. The “SAQ 6th question, Highly satisfied: number of patients” value (9 months after treatment) was 412, the “SAQ 6th question, Mostly dissatisfied: % of patients” value (9 months after treatment) was “(1.95%)” and the “SAQ 6th question, Mostly dissatisfied: number of patients” value (9 months after treatment) was 34. For the same compound, the “SAQ 6th question, Mostly satisfied: % of patients” value (9 months after treatment) was “(58.77%)”, the “SAQ 6th question, Mostly satisfied: number of patients” value (9 months after treatment) was 1025 and the “SAQ 6th question, Partly satisfied: % of patients” value (9 months after treatment) was “(15.42%)”. The “SAQ 6th question, Partly satisfied: number of patients” value (9 months after treatment) was 269, the “SAQ 7th question, Dissatisfied: % of patients” value (9 months after treatment) was “(0.11%)” and the “SAQ 7th question, Dissatisfied: number of patients” value (9 months after treatment) was 2. The “SAQ 7th question, Highly satisfied: % of patients” value (9 months after treatment) was “(27.21%)”, the “SAQ 7th question, Highly satisfied: number of patients” value (9 months after treatment) was 474 and the “SAQ 7th question, Most dissatisfied: % of patients” value (9 months after treatment) was “(1.09%)”. The “SAQ 7th question, Most dissatisfied: number of patients” value (9 months after treatment) was 19, the “SAQ 7th question, Mostly satisfied: % of patients” value (9 months after treatment) was “(59.53%)” and the “SAQ 7th question, Mostly satisfied: number of patients” value (9 months after treatment) was 1037. For the same compound, the “SAQ 7th question, Partly satisfied: % of patients” value (9 months after treatment) was “(12.06%)”, the “SAQ 7th question, Partly satisfied: number of patients” value (9 months after treatment) was 210 and the “SAQ Question 1-1 Mildly limited, number of patients” value (9 months after treatment) was 25. For the same compound, the “SAQ Question 1-1 Mildly limited, percent of patients” value (9 months after treatment) was “(1.43%)”, the “SAQ Question 1-1 Moderately limited, number of patients” value (9 months after treatment) was 5 and the “SAQ Question 1-1 Moderately limited, percent of patients” value (9 months after treatment) was “(0.29%)”. The “SAQ Question 1-1 Not limited, number of patients” value (9 months after treatment) was 1643, the “SAQ Question 1-1 Not limited, percent of patients” value (9 months after treatment) was “(94.21%)” and the “SAQ Question 1-1 Other reasons, number of patients” value (9 months after treatment) was 3.
